Experimental data taken from US20240368163A1, “COMPOUNDS AND METHODS FOR MODULATING SPLICING” (REMIX THERAPEUTICS INC., priority 2021, published 2024).
Like-named read-outs stand apart in the source and are kept apart here.

Tests used:
Format in all cases: cell-based, human
[1] = system: MYB; experiment: Splicing RT-qPCR assay, MYB mRNA canonical junction (CJ) and alternative junction (AJ); settings: for AC50: increase in AJ mRNA
Outline: (§1)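 First, A673 cells adhered 24 h, while K562 cells were plated directly. Next, compounds were added as an 11-point 3-fold series from 10 uM for 24 h. Finally, lysates went to RT-qPCR, with 2^(−ΔΔCt) values converted to percentage response.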

[2] = system: HTT; experiment: Splicing RT-qPCR assay, HTT mRNA canonical junction (CJ) and alternative junction (AJ); settings: for AC50: increase in AJ mRNA
Outline: as §1

[3] = system: Target C; experiment: HiBiT protein abundance assay, Target C; settings: modified K562 cells
Outline: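 Target protein levels in engineered HiBiT-tagged cells were read by lytic luminescence after 24 h compound exposure (10000 cells/well, 10 μM top final, 3-fold steps, ≤0.25% DMSO). Unmodified K562 served as baseline; four-parameter regression gave concentration reducing abundance to 50%.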

[4] = system: HTT; experiment: HiBiT protein abundance assay, HTT; settings: modified K562 cells
Outline: (§2)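 Protein abundance measured by Nano-Glo HiBiT lytic luminescence after 24 h compound exposure of modified K562 lines, 10000 cells/well, top final dose 10 μM in 3-fold steps. Four-parameter fit of control-normalised response gives concentration reducing abundance to 50% of untreated.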

[5] = system: SMN2; experiment: Splicing RT-qPCR panel, SMN2 canonical junction (CJ) mRNA; settings: read-out: SMN2 IC50 (decrease in CJ mRNA levels)
Outline: as §1

[6] = system: Target C; experiment: Splicing RT-qPCR panel, Target C canonical junction (CJ) mRNA; settings: read-out: Target C IC50 (decrease in CJ mRNA levels)
Outline: as §1

[7] = system: MYB; experiment: HiBiT protein abundance assay, MYB; settings: modified K562 cells
Outline: as §2

[8] = Homo sapiens, gene panel, CJ qPCR, protocol of Example 142, read-out: MYB IC50 (decrease in CJ mRNA levels)
[9] = Homo sapiens, gene panel, CJ qPCR, protocol of Example 142, read-out: HTT IC50 (decrease in CJ mRNA levels)
[10] = Homo sapiens, K562, 24 h, Table 13B
[11] = Homo sapiens, gene panel, CJ qPCR, protocol of Example 142
[12] = Homo sapiens, 24 h, decrease in CJ mRNA, A673 or K562 cells, 24 hours treatment, RT-qPCR, read-out: MYB CJ IC50
[13] = Homo sapiens, 24 h, A673 or K562 cells, 24 hours treatment, RT-qPCR
[14] = Homo sapiens, RT-qPCR panel, canonical junction mRNA, compound concentration having 50% response in CJ decrease, read-out: MYB IC50 (decrease in CJ mRNA levels)
[15] = Homo sapiens, 24 h, decrease in CJ mRNA, A673 or K562 cells, 24 hours treatment, RT-qPCR, read-out: HTT CJ IC50
[16] = Homo sapiens, RT-qPCR panel, canonical junction mRNA, compound concentration having 50% response in CJ decrease, read-out: HTT IC50 (decrease in CJ mRNA levels)
[17] = Homo sapiens, K562, 24 h, Table 13A
[18] = Homo sapiens, RT-qPCR panel, canonical junction mRNA, compound concentration having 50% response in CJ decrease
[19] = RT-qPCR panel, canonical junction mRNA, compound concentration having 50% response in CJ decrease
[20] = Homo sapiens, Table 13B, 24 hours

SMILES | IC50 [1, 12] [µM] | AC50 [1, 13] [µM] | IC50 [1, 14] [µM] | IC50 [2, 15] [µM] | AC50 [2, 13] [µM] | IC50 [2, 16] [µM] | IC50 [3, 17] [µM] | IC50 [4, 17] [µM] | IC50 [5, 18] [µM] | IC50 [6, 18] [µM] | IC50 [7, 17] [µM] | also measured
COc1nc(-c2ccc(N(C)[C@@H]3C[C@H]4CC[C@@H](C3)N4)nc2)ccc1-c1cn[nH]c1 [Compound 979] |  |  |  |  |  |  |  |  |  |  |  | IC50 [1, 8]: 0.1 to 1 µM; IC50 [2, 9]: < 0.1 µM; IC50 [3, 10]: < 0.1 µM; IC50 [4, 10]: < 0.1 µM; IC50 [5, 11]: < 0.1 µM; IC50 [6, 11]: 0.1 to 1 µM; IC50 [7, 10]: 0.1 to 1 µM
CN(C)[C@H]1[C@@H]2CN(c3ccc(-c4ccc(-c5cn[nH]c5)c5ncsc45)nn3)C[C@@H]21 [Compound 285] | > 10 | > 10 | > 10 | > 10 | 1 to 10 | > 10 | > 10 | 1 to 10 | 0.1 to 1 | > 10 | 1 to 10 | 
COc1cc(-c2ccc(-c3ccc(N(C)C4CC(C)(C)NC(C)(C)C4)nn3)c3ncsc23)ccn1 [Compound 177] | 1 to 10 | > 10 | 1 to 10 | > 10 | > 10 | > 10 | 1 to 10 | 1 to 10 | 1 to 10 | > 10 | 1 to 10 | 
CN(c1ccc(-c2cc(F)c(-c3cnn(C)c3)c3cn[nH]c23)nn1)C1CC(C)(C)NC(C)(C)C1 [Compound 326, 6-[5-fluoro-4-(1-methylpyrazol-4-yl)-1H-indazol-7-yl]-N-methyl-N-(2,2,6,6-tetramethylpiperidin-4-yl)pyridazin-3-amine] |  |  |  |  |  |  |  |  |  |  |  | IC50 ([1]; RT-qPCR panel, canonical junction mRNA, compound concentration having 50% response in CJ decrease, read-out: MYB IC50 (decrease in CJ mRNA levels)): 0.1 to 1 µM; IC50 ([1]; decrease in CJ mRNA, A673 or K562 cells, 24 hours treatment, RT-qPCR, read-out: MYB CJ IC50): 0.1 to 1 µM; IC50 ([2]; RT-qPCR panel, canonical junction mRNA, compound concentration having 50% response in CJ decrease, read-out: HTT IC50 (decrease in CJ mRNA levels)): 0.1 to 1 µM; IC50 ([2]; decrease in CJ mRNA, A673 or K562 cells, 24 hours treatment, RT-qPCR, read-out: HTT CJ IC50): 0.1 to 1 µM; IC50 ([3]; Table 13A, 24 hours): 1 to 10 µM; IC50 ([4]; Table 13A, 24 hours): 0.1 to 1 µM; IC50 [5, 19]: < 0.1 µM; IC50 [6, 19]: 1 to 10 µM; IC50 ([7]; Table 13A, 24 hours): 0.1 to 1 µM
c1n[nH]cc1-c1ccc(-c2ccc(N3CCC4(CCNC4)CC3)nn2)c2[nH]ncc12 [Compound 240] | > 10 | > 10 | > 10 | > 10 | > 10 | > 10 | > 10 | > 10 | > 10 | > 10 | > 10 | 
c1nc2c(-c3cn[nH]c3)ccc(-c3ccc(N4CCC5(CCCNC5)C4)nn3)c2s1 (stereo not shown) [Compound 191] | > 10 | > 10 | > 10 | > 10 | > 10 | > 10 | > 10 | 1 to 10 | 1 to 10 | > 10 | 1 to 10 | 
Cn1cc(-c2ccc(-c3ccc(OC4CC(C)(C)NC(C)(C)C4)nn3)c3[nH]ncc23)nn1 [Compound 325, 4-(1-methyl-1H-1,2,3-triazol-4-yl)-7-(6-((2,2,6,6-tetramethylpiperidin-4-yl)oxy)pyridazin-3-yl)-1H-indazole] | 1 to 10 | 1 to 10 | 1 to 10 | 1 to 10 | 1 to 10 | 1 to 10 | > 10 | 1 to 10 | 0.1 to 1 | > 10 | 1 to 10 | 
CN(c1ccc(-c2ccc(-c3cnn(C4CC4)n3)c3cn[nH]c23)nn1)[C@@H]1C[C@H]2CC[C@@H](C1)N2 [Compound 312, (1R,3s,5S)-N-(6-(4-(2-cyclopropyl-2H-1,2,3-triazol-4-yl)-1H-indazol-7-yl)pyridazin-3-yl)-N-methyl-8-azabicyclo[3.2.1]octan-3-amine] | 1 to 10 | 0.1 to 1 | 1 to 10 | 1 to 10 | 1 to 10 | 1 to 10 | 1 to 10 | 0.1 to 1 | 0.1 to 1 | 1 to 10 | 0.1 to 1 | 
CC1(C)CC(N(c2ccc(-c3ccc(-c4cn[nH]c4)c4ncsc34)nn2)C2CC2)CC(C)(C)N1 [Compound 284] | 0.1 to 1 | > 10 | 0.1 to 1 | 0.1 to 1 | 0.1 to 1 | 0.1 to 1 | 1 to 10 | 0.1 to 1 | 0.1 to 1 | 1 to 10 | 0.1 to 1 | 
[2H]C([2H])([2H])N(c1ccc(-c2ccc(-c3cn[nH]c3)c3ncsc23)nn1)C1CC(C)(C)NC(C)(C)C1 [Compound 231] | 0.1 to 1 | 0.1 to 1 | 0.1 to 1 | 0.1 to 1 | 0.1 to 1 | 0.1 to 1 | 0.1 to 1 | < 0.1 | < 0.1 | 0.1 to 1 | 0.1 to 1 | 
CN(c1ncc(-c2ccc(-c3cn[nH]c3)c3ncsc23)nn1)C1CC(C)(C)NC(C)(C)C1 [Compound 567] |  |  | 1 to 10 |  |  | 0.1 to 1 | 0.1 to 1 | 0.1 to 1 | 0.1 to 1 | 0.1 to 1 | 1 to 10 | 
COc1nc(-c2ccc(N(C)[C@@H]3C[C@H]4CC[C@@H](C3)N4)nn2)ccc1-n1cccn1 [Compound 907] |  |  |  |  |  |  |  |  |  |  |  | IC50 [1, 8]: 1 to 10 µM; IC50 [2, 9]: 0.1 to 1 µM; IC50 [3, 20]: 1 to 10 µM; IC50 [4, 20]: 0.1 to 1 µM; IC50 [5, 11]: 0.1 to 1 µM; IC50 [6, 11]: > 10 µM; IC50 [7, 20]: 1 to 10 µM
CCn1ncc(-c2ccc(-c3ccc(N(C)[C@@H]4C[C@H]5CC[C@@H](C4)N5)nn3)c3[nH]ncc23)n1 [Compound 317, N-{6-[4-(2-ethyl-1,2,3-triazol-4-yl)-1H-indazol-7-yl]pyridazin-3-yl}-N-methyl-8-azabicyclo[3.2.1]octan-3-amine] | 0.1 to 1 | 0.1 to 1 | 0.1 to 1 | 0.1 to 1 | 0.1 to 1 | 0.1 to 1 | 0.1 to 1 | 0.1 to 1 | 1 to 10 | 1 to 10 | 0.1 to 1 | 
c1nc2c(-c3cn[nH]c3)ccc(-c3ccc(N4CCC45CCNCC5)nn3)c2s1 [Compound 266] | 1 to 10 | > 10 | 1 to 10 | 1 to 10 | > 10 | 1 to 10 | > 10 | 1 to 10 | > 10 | > 10 | 1 to 10 | 
c1nc2c(-c3cn[nH]c3)ccc(-c3cnc(N4CCN5CCCC5C4)nn3)c2s1 (stereo not shown) [Compound 565] |  |  | 1 to 10 |  |  | 1 to 10 | 1 to 10 | 1 to 10 | 1 to 10 | > 10 | 1 to 10 | 
COc1cc(-c2ccc(-c3ccc(N(C)C4CC(C)(C)NC(C)(C)C4)nn3)c3scnc23)ccn1 [Compound 280] | 1 to 10 | 1 to 10 | 1 to 10 | 0.1 to 1 | 0.1 to 1 | 0.1 to 1 | 0.1 to 1 | < 0.1 | 0.1 to 1 | 1 to 10 | 0.1 to 1 | 
[2H]C([2H])([2H])N(c1ccc(-c2ccc(-c3cn[nH]c3)c3cn[nH]c23)nn1)C1CCNCC1 [Compound 267] | > 10 | > 10 | > 10 | > 10 | > 10 | > 10 | 1 to 10 | 1 to 10 | 1 to 10 | > 10 | 1 to 10 | 
